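Tested at 5 concentrations; 48 h exposure; 96-well plates; endpoints linearly interpolated, else capped at highest concentration. TGI: total growth inhibition.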
Columns and labels:
Experiment in all cases: NCI anticancer screen, dose series, 48 h
HCT-15 colon = system: HCT-15 colon
SR leukemia = system: SR leukemia
HL-60(TB) leukemia = system: HL-60(TB) leukemia
RPMI-8226 leukemia = system: RPMI-8226 leukemia
HS 578T breast = system: HS 578T breast
MDA-MB-231 breast = system: MDA-MB-231 breast
PC-3 prostate = system: PC-3 prostate
T-47D breast = system: T-47D breast
HOP-62 NSCLC = system: HOP-62 NSCLC
CCRF-CEM leukemia = system: CCRF-CEM leukemia
NCI-H460 lung = system: NCI-H460 lung
SF-268 CNS = system: SF-268 CNS
UACC-257 melanoma = system: UACC-257 melanoma
HCC-2998 colon = system: HCC-2998 colon
SNB-19 CNS = system: SNB-19 CNS
SN12C renal = system: SN12C renal
MDA-N = system: MDA-N
SK-MEL-5 melanoma = system: SK-MEL-5 melanoma
SK-OV-3 ovarian = system: SK-OV-3 ovarian
TK-10 renal = system: TK-10 renal
U251 CNS = system: U251 CNS
NCI-H522 lung = system: NCI-H522 lung
IGROV1 ovarian = system: IGROV1 ovarian
CAKI-1 renal = system: CAKI-1 renal
UO-31 renal = system: UO-31 renal
NCI/ADR-RES ovarian = system: NCI/ADR-RES ovarian
HT29 colon = system: HT29 colon
SW-620 colon = system: SW-620 colon
MDA-MB-435 = system: MDA-MB-435
NCI-H23 lung = system: NCI-H23 lung
A549 NSCLC = system: A549 NSCLC
OVCAR-4 ovarian = system: OVCAR-4 ovarian
K-562 leukemia = system: K-562 leukemia
MALME-3M melanoma = system: MALME-3M melanoma
BT-549 breast = system: BT-549 breast
DU-145 prostate = system: DU-145 prostate
786-0 renal = system: 786-0 renal
OVCAR-3 ovarian = system: OVCAR-3 ovarian
SF-539 CNS = system: SF-539 CNS
OVCAR-5 ovarian = system: OVCAR-5 ovarian
SK-MEL-2 melanoma = system: SK-MEL-2 melanoma
SK-MEL-28 melanoma = system: SK-MEL-28 melanoma
COLO 205 colon = system: COLO 205 colon
OVCAR-8 ovarian = system: OVCAR-8 ovarian
EKVX NSCLC = system: EKVX NSCLC
HCT-116 colon = system: HCT-116 colon
SF-295 CNS = system: SF-295 CNS
MOLT-4 leukemia = system: MOLT-4 leukemia
LOX IMVI melanoma = system: LOX IMVI melanoma
SNB-75 CNS = system: SNB-75 CNS
KM12 colon = system: KM12 colon
RXF 393 renal = system: RXF 393 renal
A498 renal = system: A498 renal
NCI-H226 lung = system: NCI-H226 lung
UACC-62 melanoma = system: UACC-62 melanoma
ACHN renal = system: ACHN renal
M14 melanoma = system: M14 melanoma
HOP-92 NSCLC = system: HOP-92 NSCLC

SMILES: CCOC(=O)c1c(SCCN(CC)CC)n(-c2ccccc2)c(=S)n(-c2ccccc2)c1=O
- TGI (HCT-15 colon): 7.28 µM
- TGI (SR leukemia): 2.6 µM
- TGI (HL-60(TB) leukemia): 3.61 µM
- TGI (RPMI-8226 leukemia): 3.87 µM
- TGI (HS 578T breast): 28 µM
- TGI (MDA-MB-231 breast): 9.04 µM
- TGI (PC-3 prostate): 4.1 µM
- TGI (T-47D breast): 15.3 µM
- TGI (HOP-62 NSCLC): 32.6 µM
- TGI (CCRF-CEM leukemia): 3.34 µM
- TGI (NCI-H460 lung): 15.6 µM
- TGI (SF-268 CNS): 9.9 µM
- TGI (UACC-257 melanoma): 5.46 µM
- TGI (HCC-2998 colon): 3.46 µM
- TGI (SNB-19 CNS): 31.9 µM
- TGI (SN12C renal): 3.4 µM
- TGI (MDA-N): 7 µM
- TGI (SK-MEL-5 melanoma): 7.6 µM
- TGI (SK-OV-3 ovarian): 40.2 µM
- TGI (TK-10 renal): 3.39 µM
- TGI (U251 CNS): 29.6 µM
- TGI (NCI-H522 lung): 3.67 µM
- TGI (IGROV1 ovarian): 13.2 µM
- TGI (CAKI-1 renal): 4.68 µM
- TGI (UO-31 renal): 3.12 µM
- TGI (NCI/ADR-RES ovarian): > 100 µM
- TGI (HT29 colon): 12.6 µM
- TGI (SW-620 colon): > 24.2 µM
- TGI (MDA-MB-435): 4.81 µM
- TGI (NCI-H23 lung): 44.6 µM
- TGI (A549 NSCLC): 9.42 µM
- TGI (OVCAR-4 ovarian): 25.5 µM
- TGI (K-562 leukemia): 4.32 µM
- TGI (MALME-3M melanoma): 3.06 µM
- TGI (BT-549 breast): 18.6 µM
- TGI (DU-145 prostate): 3.06 µM
- TGI (786-0 renal): 3.17 µM
- TGI (OVCAR-3 ovarian): 3.36 µM
- TGI (SF-539 CNS): 9.11 µM
- TGI (OVCAR-5 ovarian): > 57.6 µM
- TGI (SK-MEL-2 melanoma): 30.1 µM
- TGI (SK-MEL-28 melanoma): 11.9 µM
- TGI (COLO 205 colon): 6.2 µM
- TGI (OVCAR-8 ovarian): 7.19 µM
- TGI (EKVX NSCLC): 24.8 µM
- TGI (HCT-116 colon): 8.13 µM
- TGI (SF-295 CNS): > 100 µM
- TGI (MOLT-4 leukemia): 3.33 µM
- TGI (LOX IMVI melanoma): 4.03 µM
- TGI (SNB-75 CNS): 23.4 µM
- TGI (KM12 colon): 28.5 µM
- TGI (RXF 393 renal): 3.28 µM
- TGI (A498 renal): 29 µM
- TGI (NCI-H226 lung): 41.1 µM
- TGI (UACC-62 melanoma): 9.1 µM
- TGI (ACHN renal): 3.2 µM
- TGI (M14 melanoma): 3.13 µM
- TGI (HOP-92 NSCLC): 4.15 µM

Source: PubChem BioAssay (NCI)
